# According to article PMC9873984, “Membrane cholesterol regulates inhibition and substrate transport by the glycine transporter, GlyT2” (Life Science Alliance, 2023):
# Residue numbers refer to the chain shown, from its start.
# Key:
# GlyT2 F515V mutant = GlyT2 F515V mutant (Homo sapiens, UniProt Q9Y345, F515V); details: read-out: Glycine EC50; F515V (TM7)
# Source text: (§1) GlyT2a (referred to herein as GlyT2) was subcloned into the plasmid oocyte transcription vector (pOTV) for expression in Xenopus laevis oocytes. Oligonucleotide primers incorporating desired mutations were synthesized by Sigma-Aldrich and used to generate point mutations in the GlyT2 cDNA/pOTV construct using the Q5 site-directed mutagenesis kit (New England Biolabs [Genesearch]). Amplified PCR products were transformed into chemically competent E. coli cells and purified using the GeneJET Plasmid Miniprep Kit (Thermo Fisher Scientific). Purified plasmid DNA was sequence-verified by the Australian Genome Research Facility. pOTV constructs were linearized with the restriction enzyme SpeI (New England Biolabs [Genesearch]), and RNA was transcribed by T7 RNA polymerase using the mMESSAGE mMACHINE T7 kit (Thermo Fisher Scientific).
# (§2) The transport activity of GlyT2 is an electrogenic process as it couples the transport of glycine to the co-transport of 3 Na^+ and 1 Cl^− and thus can be measured using two-electrode voltage-clamp electrophysiology. Oocytes expressing GlyTs were voltage-clamped at −60 mV, and glycine-induced whole-cell currents were measured using a GeneClamp 500 amplifier (Axon Instruments), and a PowerLab 2/26 chart recorder (ADInstruments) and LabChart Software (ADInstruments).
# (§3) Functionality of WT and mutant GlyT2 transporters was assessed by applying increasing concentrations of glycine (1–3,000 µM) in ND96 until a stable current was achieved. Glycine concentrations were applied individually and completely removed from the system via washing with recording buffer before proceeding to the next concentration. EC50 values for each transporter were determined by fitting concentration–response data to the modified Michaelis–Menten equation: I=([Gly].Imax)/(EC50+[Gly]), where I is current in nA, [Gly] is the concentration of glycine, Imax is the current generated by a maximal concentration of glycine, and EC50 is the concentration of glycine that generates a half-maximal current.
# GlyT2 F515W mutant = biological target: T1, GlyT2 F515W mutant (Homo sapiens, UniProt Q9Y345, F515W); details: read-out: Glycine EC50; F515W (TM7)
# T1 sequence (Q9Y345 1-797 F515W): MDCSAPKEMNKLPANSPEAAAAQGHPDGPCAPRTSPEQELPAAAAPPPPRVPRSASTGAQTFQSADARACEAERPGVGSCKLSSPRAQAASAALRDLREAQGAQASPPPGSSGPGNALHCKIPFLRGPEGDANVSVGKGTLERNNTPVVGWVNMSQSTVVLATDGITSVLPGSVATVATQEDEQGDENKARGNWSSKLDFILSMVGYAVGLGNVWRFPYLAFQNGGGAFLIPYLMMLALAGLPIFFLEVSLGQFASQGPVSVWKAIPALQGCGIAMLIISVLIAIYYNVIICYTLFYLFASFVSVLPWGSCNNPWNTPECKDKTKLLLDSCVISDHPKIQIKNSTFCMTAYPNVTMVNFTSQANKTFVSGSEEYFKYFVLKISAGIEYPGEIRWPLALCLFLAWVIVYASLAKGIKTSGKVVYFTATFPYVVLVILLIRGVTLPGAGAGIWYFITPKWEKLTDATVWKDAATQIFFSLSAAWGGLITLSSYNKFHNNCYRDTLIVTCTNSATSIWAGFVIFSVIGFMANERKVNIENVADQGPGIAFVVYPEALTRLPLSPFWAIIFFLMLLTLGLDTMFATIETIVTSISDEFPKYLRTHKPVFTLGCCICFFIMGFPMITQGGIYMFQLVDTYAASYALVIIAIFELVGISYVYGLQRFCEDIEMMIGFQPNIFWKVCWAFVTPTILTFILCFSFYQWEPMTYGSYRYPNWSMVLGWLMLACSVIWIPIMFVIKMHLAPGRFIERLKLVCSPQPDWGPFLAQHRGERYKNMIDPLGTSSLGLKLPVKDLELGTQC
# Source text: as §1, §2, §3
# GlyT2 T512A mutant = biological target: T2, GlyT2 T512A mutant (Homo sapiens, UniProt Q9Y345, T512A)
# T2 sequence (Q9Y345 1-797 T512A): T1 sequence (Q9Y345 1-797 F515W) with T512A, W515F
# Source text: as §1, §2, §3
# Chain of GlyT2 F515V mutant (Q9Y345 whole entry F515V): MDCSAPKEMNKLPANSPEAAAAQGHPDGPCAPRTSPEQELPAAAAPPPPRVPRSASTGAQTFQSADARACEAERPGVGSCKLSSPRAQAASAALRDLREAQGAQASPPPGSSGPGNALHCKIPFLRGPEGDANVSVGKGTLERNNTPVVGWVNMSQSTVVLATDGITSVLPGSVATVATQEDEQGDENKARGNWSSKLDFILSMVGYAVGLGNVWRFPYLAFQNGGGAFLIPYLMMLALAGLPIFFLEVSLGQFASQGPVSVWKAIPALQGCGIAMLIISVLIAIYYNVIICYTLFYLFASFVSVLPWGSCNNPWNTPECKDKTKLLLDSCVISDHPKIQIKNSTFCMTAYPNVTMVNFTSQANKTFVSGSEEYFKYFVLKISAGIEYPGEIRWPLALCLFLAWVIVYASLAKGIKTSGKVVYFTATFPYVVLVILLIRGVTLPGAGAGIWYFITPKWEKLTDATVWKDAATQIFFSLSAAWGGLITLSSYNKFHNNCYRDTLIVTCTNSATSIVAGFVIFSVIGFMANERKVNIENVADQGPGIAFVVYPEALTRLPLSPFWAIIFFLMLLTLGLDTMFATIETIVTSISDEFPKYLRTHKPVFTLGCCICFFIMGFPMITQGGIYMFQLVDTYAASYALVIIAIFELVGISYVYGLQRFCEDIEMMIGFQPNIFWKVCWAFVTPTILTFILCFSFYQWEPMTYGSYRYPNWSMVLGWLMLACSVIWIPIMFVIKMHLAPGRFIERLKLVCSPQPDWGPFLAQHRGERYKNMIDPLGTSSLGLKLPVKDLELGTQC
compound,measurement,setting,value
"NCC(=O)O [Glycine, glycine]",EC50,GlyT2 F515V mutant,7.8 µM
same,EC50,GlyT2 F515W mutant,7.6 µM
same,Reduction in apparent glycine affinity compared to WT,GlyT2 T512A mutant; T512A vs WT,4.8 fold
same,EC50,"GlyT2 T512A mutant; read-out: Glycine EC50, T512A (TM7)",90 µM
